Experimental data: patent US20170226120A1, “INHIBITORS OF HIF PROLYL HYDROXYLASE” (MERCK SHARP & DOHME CORP., priority 2014, published 2017)

Target: T1, human HIF-PHD2 (Homo sapiens, UniProt Q9GZT9)
T1 construct: FLAG-tagged full length PHD2 expressed in and purified from baculovirus-infected Sf9 cells; FLAG; made in house; host or cells: baculovirus-infected Sf9 cells
Assay: HIF-PHD2 inhibition, time resolved fluorescence assay of HIF-1α peptide hydroxylation
Type: biochemical
Conditions: FLAG-tagged full length PHD2; 0.2 μM 2-oxoglutarate, 0.5 μM HIF-1α peptide
Procedure: To each well of a 384-well plate, 1 μL of test compounds in DMSO (final concentration ranging from 0.3 nM to 10 uM) were added into 20 μl of assay buffer (50 mM Tris pH 7.4/0.01% Tween-20/0.1 mg/ml bovine serum albumin/10 μM ferrous sulfate/1 mM sodium ascorbate/20 μg/ml catalase) containing 0.15 μg/ml FLAG-tagged full length PHD2 expressed in and purified from baculovirus-infected Sf9 cells. After a 5 min preincubation at room temperature, the enzymatic reactions were initiated by the addition of 4 μL of substrates {final concentrations of 0.2 μM 2-oxoglutarate and 0.5 μM HIF-1α peptide biotinyl-[…] […] After incubation for 45 minutes at room temperature, the reactions were terminated by the addition of a 25 μL quench/detection mix to a final concentration of 1 mM ortho-phenanthroline, 0.1 mM EDTA, 0.5 nM anti-(His)6 LANCE reagent (Perkin-Elmer Life Sciences), 100 nM AF647-labeled streptavidin (Invitrogen), and 2 μg/ml (His)6-VHL complex {S. Tan Protein Expr. Purif.

T1 sequence (Q9GZT9 whole entry): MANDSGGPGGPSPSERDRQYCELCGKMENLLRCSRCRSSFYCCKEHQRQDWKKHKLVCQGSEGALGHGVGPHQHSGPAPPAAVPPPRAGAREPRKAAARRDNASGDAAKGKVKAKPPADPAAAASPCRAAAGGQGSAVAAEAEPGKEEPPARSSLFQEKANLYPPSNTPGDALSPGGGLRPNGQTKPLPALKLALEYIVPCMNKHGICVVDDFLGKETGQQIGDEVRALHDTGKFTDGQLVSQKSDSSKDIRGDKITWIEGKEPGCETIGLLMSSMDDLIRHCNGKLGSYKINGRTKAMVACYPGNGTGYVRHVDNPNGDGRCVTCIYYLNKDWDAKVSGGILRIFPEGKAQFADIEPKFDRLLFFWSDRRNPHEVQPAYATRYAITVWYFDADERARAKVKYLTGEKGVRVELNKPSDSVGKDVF

SMILES | IC50 [nM]
COc1ccc(Cn2c3c(c(O)c(C(=O)NCC(=O)O)c2=O)COC3)cc1 [Example 28, 2-(4-hydroxy-1-(4-methoxybenzyl)-2-oxo-1,2,5,7-tetrahydrofuro[3,4-b]pyridine-3-carboxamido)acetic acid] | 2.8
O=C(O)CNC(=O)c1c(O)c2c(n(Cc3ccc4ccccc4c3)c1=O)COC2 [Example 47, 2-(4-hydroxy-1-(naphthalen-2-ylmethyl)-2-oxo-1,2,5,7-tetrahydrofuro[3,4-b]pyridine-3-carboxamido)acetic acid] | 6.8
CS(=O)(=O)c1ccc(Cn2c3c(c(O)c(C(=O)NCC(=O)O)c2=O)COC3)cc1 [Example 7, 2-(4-hydroxy-1-(4-(methylsulfonyl)benzyl)-2-oxo-1,2,5,7-tetrahydrofuro[3,4-b]pyridine-3-carboxamido)acetic acid] | 7
N#Cc1ccccc1Cn1c2c(c(O)c(C(=O)NCC(=O)O)c1=O)COC2 [Example 33, 2-(1-(2-cyanobenzyl)-4-hydroxy-2-oxo-1,2,5,7-tetrahydrofuro[3,4-b]pyridine-3-carboxamido)acetic acid] | 4.6
CCc1ccc(Cn2c3c(c(O)c(C(=O)NCC(=O)O)c2=O)COC3)cn1 [Example 63, 2-(4-Hydroxy-2-oxo-1-((6-ethylpyridin-3-yl)methyl)-1,2,5,7-tetrahydrofuro[3,4-b]pyridine-3-carboxamido)acetic acid] | 5.4
O=C(O)CNC(=O)c1c(O)c2c(n(Cc3cncc(F)c3)c1=O)COC2 [Example 10, 2-(1-((5-fluoropyridin-3-yl)methyl)-4-hydroxy-2-oxo-1,2,5,7-tetrdhydrofuro[3,4-b]pyridine-3-carboxamido)acetic acid] | 5.7
Cc1cc(Cn2c3c(c(O)c(C(=O)NCC(=O)O)c2=O)COC3)ccc1Cl [Example 50, 2-(1-(4-chloro-3-methylbenzyl)-4-hydroxy-2-oxo-1,2,5,7-tetrahydrofuro[3,4-b]pyridine-3-carboxamido)acetic acid] | 5
Cn1ccc(Cn2c3c(c(O)c(C(=O)NCC(=O)O)c2=O)COC3)n1 [Example 16, 2-(4-hydroxy-1-((1-methyl-1H-pyrazol-3-yl)methyl)-2-oxo-1,2,5,7-tetrahydrofuro[3,4-b]pyridine-3-carboxamido)acetic acid] | 7.1
N#Cc1ccc(Cn2c3c(c(O)c(C(=O)NCC(=O)O)c2=O)COC3)c(F)c1 [Example 13, 2-(1-(4-cyano-2-fluorobenzyl)-4-hydroxy-2-oxo-1,2,5,7-tetrahydrofuro[3,4-b]pyridine-3-carboxamido)acetic acid] | 3
COC(=O)c1ccccc1Cn1c2c(c(O)c(C(=O)NCC(=O)O)c1=O)COC2 [Example 39, 2-(4-hydroxy-1-(2-(methoxycarbonyl)benzyl)-2-oxo-1,2,5,7-tetrahydrofuro[3,4-b]pyridine-3-carboxamido)acetic acid] | 19.7
CNC(=O)c1ccc(Cn2c3c(c(O)c(C(=O)NCC(=O)O)c2=O)COC3)cc1 [Example 23, 2-(4-hydroxy-1-(4-(methylcarbamoyl)benzyl)-2-oxo-1,2,5,7-tetrahydrofuro[3,4-b]pyridine-3-carboxamido)acetic acid] | 10
O=C(O)CNC(=O)c1c(O)c2c(n(Cc3ccc(F)c(F)c3)c1=O)COC2 [Example 31, 2-(1-(3,4-difluorobenzyl)-4-hydroxy-2-oxo-1,2,5,7-tetrahydrofuro[3,4-b]pyridine-3-carboxamido)acetic acid] | 2.7
CC(C)c1ccc(Cn2c3c(c(O)c(C(=O)NCC(=O)O)c2=O)COC3)cc1 [Example 29, 2-(4-hydroxy-1-(4-isopropylbenzyl)-2-oxo-1,2,5,7-tetrahydrofuro[3,4-b]pyridine-3-carboxamido)acetic acid] | 2.9
O=C(N[C@@H](CO)C(=O)O)c1c(O)c2c(n(Cc3ccc(C(F)(F)F)cc3)c1=O)COC2 [Example 2, (S)-3-hydroxy-2-(4-hydroxy-2-oxo-1-(4-(trifluoromethyl)benzyl)-1,2,5,7-tetrahydrofuro[3,4-b]pyridine-3-carboxamido)propanoic acid] | 109
COc1ccc(Cn2c3c(c(O)c(C(=O)NCC(=O)O)c2=O)COC3)cn1 [Example 51, 2-(4-hydroxy-1-((6-methoxypyridin-3-yl)methyl)-2-oxo-1,2,5,7-tetrahydrofuro[3,4-b]pyridine-3-carboxamido)acetic acid] | 6.8
O=C(O)CNC(=O)c1c(O)c2c(n(Cc3ncco3)c1=O)COC2 [Example 15, 2-(4-hydroxy-1-(oxazol-2-ylmethyl)-2-oxo-1,2,5,7-tetrahydrofuro[3,4-b]pyridine-3-carboxamido)acetic acid] | 9.7
CCn1c2c(c(O)c(C(=O)NCC(=O)O)c1=O)COC2 [Example 54, 2-(1-ethyl-4-hydroxy-2-oxo-1,2,5,7-tetrahydrofuro[3,4-b]pyridine-3-carboxamido)acetic acid] | 17.4
C=Cc1ccc(Cn2c3c(c(O)c(C(=O)NCC(=O)O)c2=O)COC3)cn1 [Example 62, 2-(4-Hydroxy-2-oxo-1-((6-vinylpyridin-3-yl)methyl)-1,2,5,7-tetrahydrofuro[3,4-b]pyridine-3-carboxamido)acetic acid] | 3.7
O=C(O)CNC(=O)c1c(O)c2c(n(Cc3ccccc3C(=O)O)c1=O)COC2 [Example 58, 2-((3-((carboxymethyl)carbamoyl)-4-hydroxy-2-oxofuro[3,4-b]pyridin-1(2H,5H,7H)-yl)methyl)benzoic acid] | 17.4
O=C(O)CNC(=O)c1c(O)c2c(n(Cc3ccc(F)cn3)c1=O)COC2 [Example 14, 2-(1-((5-fluoropyridin-2-yl)methyl)-4-hydroxy-2-oxo-1,2,5,7-tetrahydrofuro[3,4-b]pyridine-3-carboxamido)acetic acid] | 6.6

The remaining molecules from weak to strong by IC50, led by results:

IC50 [nM] | SMILES
12.6 | O=C(O)CNC(=O)c1c(O)c2c(n(Cc3cnc4ccccc4c3)c1=O)COC2 [Example 48, 2-(4-hydroxy-2-oxo-1-(quinolin-3-ylmethyl)-1,2,5,7-tetrahydrofuro[3,4-b]pyridine-3-carboxamido)acetic acid]
8.4 | O=C(O)CNC(=O)c1c(O)c2c(n(Cc3cccc(F)c3)c1=O)COC2 [Example 43, 2-(1-(3-fluorobenzyl)-4-hydroxy-2-oxo-1,2,5,7-tetrahydrofuro[3,4-b]pyridine-3-carboxamido)acetic acid]
8 | O=C(O)CNC(=O)c1c(O)c2c(n(Cc3cccc(C(=O)O)c3)c1=O)COC2 [Example 59, 3-((3-((carboxymethyl)carbamoyl)-4-hydroxy-2-oxofuro[3,4-b]pyridin-1(2H,5H,7H)-yl)methyl)benzoic acid]
7.2 | O=C(O)CNC(=O)c1c(O)c2c(n(Cc3ccc(C(=O)O)cc3)c1=O)COC2 [Example 57, 4-((3-((Carboxymethyl)carbamoyl)-4-hydroxy-2-oxofuro[3,4-b]pyridin-1(2H,5H,7H)-yl)methyl)benzoic acid]
7.1 | N#Cc1ccc(Cn2c3c(c(O)c(C(=O)NCC(=O)O)c2=O)COC3)cc1F [Example 53, 2-(1-(4-cyano-3-fluorobenzyl)-4-hydroxy-2-oxo-1,2,5,7-tetrahydrofuro[3,4-b]pyridine-3-carboxamido)acetic acid]
5.2 | Cc1ncsc1Cn1c2c(c(O)c(C(=O)NCC(=O)O)c1=O)COC2 [Example 8, 2-(4-hydroxy-1-((4-methylthiazol-5-yl)methyl)-2-oxo-1,2,5,7-tetrahydrofuro[3,4-b]pyridine-3-carboxamido)acetic acid]
4.6 | O=C(O)CNC(=O)c1c(O)c2c(n(Cc3ccccc3F)c1=O)COC2 [Example 35, 2-(1-(2-fluorobenzyl)-4-hydroxy-2-oxo-1,2,5,7-tetrahydrofuro[3,4-b]pyridine-3-carboxamido)acetic acid]
4.3 | NC(=O)c1ccc(Cn2c3c(c(O)c(C(=O)NCC(=O)O)c2=O)COC3)cc1 [Example 60, 2-(1-(4-Carbamoylbenzyl)-4-hydroxy-2-oxo-1,2,5,7-tetrahydrofuro[3,4-b]pyridine-3-carboxamido)acetic acid]
3.3 | O=C(O)CNC(=O)c1c(O)c2c(n(Cc3ccc(C(F)(F)F)c(Br)c3)c1=O)COC2 [Example 45, 2-(1-(3-bromo-4-(trifluoromethyl)benzyl)-4-hydroxy-2-oxo-1,2,5,7-tetrahydrofuro[3,4-b]pyridine-3-carboxamido)acetic acid]
3.3 | O=C(O)CNC(=O)c1c(O)c2c(n(Cc3cccnc3)c1=O)COC2 [Example 37, 3-((3-((carboxymethyl)carbamoyl)-4-hydroxy-2-oxofuro[3,4-b]pyridin-1(2H,5H,7H)-yl)methyl)pyridin-1-ium chloride]
2.7 | O=C(O)CNC(=O)c1c(O)c2c(n(Cc3ccc(F)cc3)c1=O)COC2 [Example 26, 2-(1-(4-fluorobenzyl)-4-hydroxy-2-oxo-1,2,5,7-tetrahydrofuro[3,4-b]pyridine-3-carboxamido)acetic acid]
1.2 | Cc1cc(C(=O)O)ccc1-c1ccc(Cn2c3c(c(O)c(C(=O)NCC(=O)O)c2=O)COC3)cc1 [Example 64, 4′-((3-((Carboxymethyl)carbamoyl)-4-hydroxy-2-oxofuro[3,4-b]pyridin-1(2H,5H,7H)-yl)methyl)-2-methyl-[1,1′-biphenyl]-4-carboxylic acid]
